Data from patent US9549932B2, “2-(morpholin-4-yl)-1,7-naphthyridines” (BAYER PHARMA AKTIENGESELLSCHAFT, priority 2014, dated 2017).

These molecules were tested against full-length human ATR protein (Homo sapiens (Human), UniProt Q13535) (assay: Binding assay ATR (TR-FRET tracer displacement)). Details: tracer A, TR-FRET; read-out: ATR binding (tracer A) IC50.
Summary of the method: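 Full-length human GST-ATR co-purified with ATRIP, pre-complexed 30 min at 22 °C with anti-GST-Tb antibody, then pre-bound with compound 10 min. Tracer A or B added (2 µl of 100 nM solution), 30 min at 22 °C.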

full-length human ATR protein, sequence (Q13535 other isoform, or with tags, fused parts or gaps): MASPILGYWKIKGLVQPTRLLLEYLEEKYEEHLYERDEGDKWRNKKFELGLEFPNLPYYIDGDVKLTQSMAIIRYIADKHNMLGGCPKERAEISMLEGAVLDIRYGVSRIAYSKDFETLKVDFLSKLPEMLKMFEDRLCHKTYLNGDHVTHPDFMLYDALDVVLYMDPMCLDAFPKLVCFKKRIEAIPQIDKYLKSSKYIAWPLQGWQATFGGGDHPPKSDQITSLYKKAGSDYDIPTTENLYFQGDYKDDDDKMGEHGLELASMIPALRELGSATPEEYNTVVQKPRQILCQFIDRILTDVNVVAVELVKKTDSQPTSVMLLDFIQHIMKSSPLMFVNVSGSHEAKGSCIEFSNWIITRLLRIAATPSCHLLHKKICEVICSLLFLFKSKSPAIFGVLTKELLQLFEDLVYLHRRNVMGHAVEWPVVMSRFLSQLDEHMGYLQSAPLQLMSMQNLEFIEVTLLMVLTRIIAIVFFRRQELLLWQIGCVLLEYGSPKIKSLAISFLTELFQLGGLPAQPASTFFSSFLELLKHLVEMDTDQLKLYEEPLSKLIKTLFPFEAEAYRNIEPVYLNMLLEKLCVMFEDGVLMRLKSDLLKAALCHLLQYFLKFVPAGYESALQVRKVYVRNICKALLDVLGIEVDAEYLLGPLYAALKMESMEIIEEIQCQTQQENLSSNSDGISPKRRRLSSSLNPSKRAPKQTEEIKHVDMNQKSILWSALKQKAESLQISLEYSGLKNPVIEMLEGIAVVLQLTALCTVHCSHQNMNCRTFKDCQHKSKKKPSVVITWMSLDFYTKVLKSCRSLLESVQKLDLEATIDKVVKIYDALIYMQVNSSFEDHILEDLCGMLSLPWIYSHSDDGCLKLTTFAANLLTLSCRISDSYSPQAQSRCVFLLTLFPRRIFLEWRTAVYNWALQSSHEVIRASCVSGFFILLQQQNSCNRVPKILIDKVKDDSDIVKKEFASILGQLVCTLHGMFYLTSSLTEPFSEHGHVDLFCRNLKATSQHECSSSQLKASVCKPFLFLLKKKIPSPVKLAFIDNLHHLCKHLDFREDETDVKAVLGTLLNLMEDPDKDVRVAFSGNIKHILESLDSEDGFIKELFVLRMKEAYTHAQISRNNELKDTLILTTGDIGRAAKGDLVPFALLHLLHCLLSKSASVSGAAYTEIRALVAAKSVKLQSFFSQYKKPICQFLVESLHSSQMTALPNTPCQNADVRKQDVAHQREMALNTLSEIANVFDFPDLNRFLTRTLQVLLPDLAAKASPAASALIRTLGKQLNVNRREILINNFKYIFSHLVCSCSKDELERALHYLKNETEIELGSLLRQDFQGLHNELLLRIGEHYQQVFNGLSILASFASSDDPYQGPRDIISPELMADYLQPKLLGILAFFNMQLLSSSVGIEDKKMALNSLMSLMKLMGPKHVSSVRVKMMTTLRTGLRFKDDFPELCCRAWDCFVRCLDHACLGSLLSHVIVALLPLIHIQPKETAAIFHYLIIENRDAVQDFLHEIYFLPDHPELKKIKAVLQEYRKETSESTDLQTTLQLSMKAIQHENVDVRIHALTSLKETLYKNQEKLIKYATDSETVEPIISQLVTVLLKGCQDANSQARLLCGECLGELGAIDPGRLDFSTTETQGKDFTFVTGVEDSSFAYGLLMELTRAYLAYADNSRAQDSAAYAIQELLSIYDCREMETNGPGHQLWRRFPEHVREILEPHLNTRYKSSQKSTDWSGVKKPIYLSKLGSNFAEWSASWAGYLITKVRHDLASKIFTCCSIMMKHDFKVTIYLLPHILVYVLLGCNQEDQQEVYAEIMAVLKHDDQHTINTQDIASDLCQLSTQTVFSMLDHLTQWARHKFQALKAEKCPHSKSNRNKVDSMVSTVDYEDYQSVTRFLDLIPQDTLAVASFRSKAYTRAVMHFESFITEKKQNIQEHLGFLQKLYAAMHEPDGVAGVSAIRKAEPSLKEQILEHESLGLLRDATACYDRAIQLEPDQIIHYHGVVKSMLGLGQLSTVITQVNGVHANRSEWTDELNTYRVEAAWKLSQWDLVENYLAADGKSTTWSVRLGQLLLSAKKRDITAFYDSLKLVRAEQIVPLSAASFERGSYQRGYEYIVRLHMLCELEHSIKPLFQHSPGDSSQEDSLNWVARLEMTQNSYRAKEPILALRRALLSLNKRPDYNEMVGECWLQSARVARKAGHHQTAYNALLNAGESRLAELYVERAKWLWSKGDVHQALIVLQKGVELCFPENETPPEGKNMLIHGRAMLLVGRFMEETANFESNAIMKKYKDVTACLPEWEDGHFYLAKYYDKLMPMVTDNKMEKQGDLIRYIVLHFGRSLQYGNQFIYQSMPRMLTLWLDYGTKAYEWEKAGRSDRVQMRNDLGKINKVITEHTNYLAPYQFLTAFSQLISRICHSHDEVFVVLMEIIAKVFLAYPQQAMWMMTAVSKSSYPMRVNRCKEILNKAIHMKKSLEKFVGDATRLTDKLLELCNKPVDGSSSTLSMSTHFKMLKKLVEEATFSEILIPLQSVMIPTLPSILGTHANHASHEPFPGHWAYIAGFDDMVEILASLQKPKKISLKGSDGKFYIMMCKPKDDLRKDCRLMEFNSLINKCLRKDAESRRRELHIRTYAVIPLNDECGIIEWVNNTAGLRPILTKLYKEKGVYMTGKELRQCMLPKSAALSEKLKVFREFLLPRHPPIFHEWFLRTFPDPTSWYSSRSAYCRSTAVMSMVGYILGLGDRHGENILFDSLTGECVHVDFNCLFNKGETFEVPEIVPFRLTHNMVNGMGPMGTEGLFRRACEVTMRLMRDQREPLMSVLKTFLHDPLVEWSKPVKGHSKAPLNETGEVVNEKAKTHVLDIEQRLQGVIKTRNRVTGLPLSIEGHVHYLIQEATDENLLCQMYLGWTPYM
full-length human ATR protein, sequence (Q8WXE1 other isoform, or with tags, fused parts or gaps partner): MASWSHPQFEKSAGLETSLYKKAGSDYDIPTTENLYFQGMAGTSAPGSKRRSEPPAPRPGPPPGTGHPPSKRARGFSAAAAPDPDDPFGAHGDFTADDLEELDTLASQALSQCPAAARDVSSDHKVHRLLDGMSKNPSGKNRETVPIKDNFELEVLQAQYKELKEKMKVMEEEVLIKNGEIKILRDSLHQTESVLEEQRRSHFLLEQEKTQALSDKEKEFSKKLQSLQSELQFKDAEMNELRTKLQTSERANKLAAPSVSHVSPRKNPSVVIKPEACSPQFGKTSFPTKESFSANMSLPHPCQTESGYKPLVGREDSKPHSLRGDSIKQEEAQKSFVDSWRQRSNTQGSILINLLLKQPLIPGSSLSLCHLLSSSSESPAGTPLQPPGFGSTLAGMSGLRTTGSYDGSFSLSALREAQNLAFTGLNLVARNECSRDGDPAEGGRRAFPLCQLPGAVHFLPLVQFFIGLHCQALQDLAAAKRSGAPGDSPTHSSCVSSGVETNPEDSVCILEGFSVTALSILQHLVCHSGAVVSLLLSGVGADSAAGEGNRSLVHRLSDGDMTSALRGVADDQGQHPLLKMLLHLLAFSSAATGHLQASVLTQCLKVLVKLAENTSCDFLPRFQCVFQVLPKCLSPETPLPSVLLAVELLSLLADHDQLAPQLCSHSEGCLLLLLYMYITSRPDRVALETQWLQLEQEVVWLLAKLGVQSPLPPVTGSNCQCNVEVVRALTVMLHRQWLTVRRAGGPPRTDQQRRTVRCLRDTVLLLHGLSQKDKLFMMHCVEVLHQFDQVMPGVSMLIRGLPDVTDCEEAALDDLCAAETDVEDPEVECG

Row | SMILES | IC50
1 | C[C@@H]1COCCN1c1cc(-c2ccnc3[nH]ccc23)c2ccnc(-c3ccn[nH]3)c2n1 [Example 104, 2-[(3R)-3-methylmorpholin-4-yl]-8-(1H-pyrazol-5-yl)-4-(1H-pyrrolo[2,3-b]pyridin-4-yl)-1,7-naphthyridine] | 14.1 nM
2 | C[C@@H]1COCCN1c1cc(-c2ncco2)c2ccnc(-c3ccn[nH]3)c2n1 [Example 270, 2-[(3R)-3-methylmorpholin-4-yl]-4-(1,3-oxazol-2-yl)-8-(1H-pyrazol-5-yl)-1,7-naphthyridine] | 33.7 nM
3 | O=S1(=Nc2cc(N3CCOCC3)nc3c(-c4ccn[nH]4)nccc23)CCCCC1 [Example 280, N-[2-(morpholin-4-yl)-8-(1H-pyrazol-5-yl)-1,7-naphthyridin-4-yl]hexahydro-1λ^4-thiopyran-1-imine 1-oxide] | 46.8 nM
4 | CCNC(=O)N=S(C)(=O)c1ccc(-c2cc(N3CCOCC3)nc3c(-c4ccn[nH]4)nccc23)cc1 (stereo not drawn) [Example 192, 1-ethyl-3-(methyl{4-[2-(morpholin-4-yl)-8-(1H-pyrazol-5-yl)-1,7-naphthyridin-4-yl]phenyl}oxido-λ^6-sulfanylidene)urea] | 115 nM
5 | CNC(=O)[C@@H]1CCCN1c1cc(N2CCOCC2)nc2c(-c3ccn[nH]3)nccc12 [Example 432, N-methyl-1-[2-(morpholin-4-yl)-8-(1H-pyrazol-5-yl)-1,7-naphthyridin-4-yl]-prolinamide] | 2040 nM
6 | COc1cc(N2CCOC[C@H]2C)nc2c(-c3cc[nH]n3)nccc12 [Example 53, 4-methoxy-2-((R)-3-methylmorpholin-4-yl)-8-(1H-pyrazol-3-yl)-[1,7]naphthyridine] | 192 nM
7 | CC(C)Cn1nccc1-c1cc(N2CCOC[C@H]2C)nc2c(-c3ccn[nH]3)nccc12 [Example 146, 4-(1-isobutyl-1H-pyrazol-5-yl)-2-[(3R)-3-methylmorpholin-4-yl]-8-(1H-pyrazol-5-yl)-1,7-naphthyridine] | 35.7 nM
8 | C=C(C)c1cc(N2CCOCC2)nc2c(-c3cc[nH]n3)nccc12 [Example 10, 4-isopropenyl-2-(morpholin-4-yl)-8-(1H-pyrazol-3-yl)-[1,7]naphthyridine] | 126 nM
9 | O=C1OCCN1c1cc(N2CCOCC2)nc2c(-c3ccn[nH]3)nccc12 [Example 226, 3-[2-(morpholin-4-yl)-8-(1H-pyrazol-5-yl)-1,7-naphthyridin-4-yl]-1,3-oxazolidin-2-one] | 1140 nM
10 | COCCS(C)(=O)=Nc1cc(N2CCOC[C@H]2C)nc2c(-c3ccn[nH]3)nccc12 (stereo partly drawn) [Example 274, 4-{[(2-methoxyethyl)(methyl)oxido-λ^6-sulfanylidene]amino}-2-[(3R)-3-methylmorpholin-4-yl]-8-(1H-pyrazol-5-yl)-1,7-naphthyridine] | 62.7 nM
11 | C[C@@H]1COCCN1c1cc(-c2cnn(C3CCC3)c2)c2ccnc(-c3ccn[nH]3)c2n1 [Example 253, 4-(1-cyclobutyl-1H-pyrazol-4-yl)-2-[(3R)-3-methylmorpholin-4-yl]-8-(1H-pyrazol-5-yl)-1,7-naphthyridine] | 33.7 nM
12 | CC1CCN(c2cc(N3CCOCC3)nc3c(-c4ccn[nH]4)nccc23)CC1 [Example 415, 4-(4-methylpiperidin-1-yl)-2-(morpholin-4-yl)-8-(1H-pyrazol-5-yl)-1,7-naphthyridine] | 32.7 nM
13 | Cc1cscc1-c1cc(N2CCOCC2)nc2c(-c3ccn[nH]3)nccc12 [Example 370, 4-(4-methylthiophen-3-yl)-2-(morpholin-4-yl)-8-(1H-pyrazol-5-yl)-1,7-naphthyridine] | 35 nM
14 | COc1ncccc1-c1cc(N2CCOC[C@H]2C)nc2c(-c3ccn[nH]3)nccc12 [Example 220, 4-(2-methoxypyridin-3-yl)-2-[(3R)-3-methylmorpholin-4-yl]-8-(1H-pyrazol-5-yl)-1,7-naphthyridine] | 32.4 nM
15 | O=C1CCCN1c1cc(N2CCOCC2)nc2c(-c3ccn[nH]3)nccc12 [Example 215, 1-[2-(morpholin-4-yl)-8-(1H-pyrazol-5-yl)-1,7-naphthyridin-4-yl]pyrrolidin-2-one] | 317 nM
16 | C[C@@H]1COCCN1c1cc(-c2c[nH]nc2C(F)(F)F)c2ccnc(-c3ccn[nH]3)c2n1 [Example 252, 2-[(3R)-3-methylmorpholin-4-yl]-8-(1H-pyrazol-5-yl)-4-[3-(trifluoromethyl)-1H-pyrazol-4-yl]-1,7-naphthyridine] | 6.45 nM
17 | CC(C)S(=O)(=O)c1cc(N2CCOCC2)nc2c(-c3ccn[nH]3)nccc12 [Example 199, 2-(morpholin-4-yl)-4-(propan-2-ylsulfonyl)-8-(1H-pyrazol-5-yl)-1,7-naphthyridine] | 138 nM
18 | CN=S(C)(=O)c1ccc(-c2cc(N3CCOCC3)nc3c(-c4ccn[nH]4)nccc23)cc1 (stereo not drawn) [Example 5, 4-[4-(N,S-dimethylsulfonimidoyl)phenyl]-2-[morpholin-4-yl]-8-(1H-pyrazol-5-yl)-1,7-naphthyridine] | 64.3 nM

Row | SMILES | IC50
19 | CN(C)C(=O)c1ccc(-c2cc(N3CCOCC3)nc3c(-c4ccn[nH]4)nccc23)cc1 [Example 324, N,N-dimethyl-4-[2-(morpholin-4-yl)-8-(1H-pyrazol-5-yl)-1,7-naphthyridin-4-yl]benzamide] | 77.7 nM
20 | Cc1ccc(-c2cc(N3CCOCC3)nc3c(-c4ccn[nH]4)nccc23)cn1 [Example 388, 4-(6-methylpyridin-3-yl)-2-(morpholin-4-yl)-8-(1H-pyrazol-5-yl)-1,7-naphthyridine] | 79.1 nM
21 | CS(C)(=O)=Nc1cc(N2CCOCC2)nc2c(-c3ccn[nH]3)nccc12 [Example 65, 4-{[dimethyl(oxido)-λ^6-sulfanylidene]amino}-2-(morpholin-4-yl)-8-(1H-pyrazol-5-yl)-1,7-naphthyridine] | 335 nM
22 | c1cc(-c2nccc3c(OCC4CCOCC4)cc(N4CCOCC4)nc23)[nH]n1 [Example 287, 2-(morpholin-4-yl)-8-(1H-pyrazol-5-yl)-4-(tetrahydro-2H-pyran-4-ylmethoxy)-1,7-naphthyridine] | 675 nM
23 | O=C1CCCCN1c1cc(N2CCOCC2)nc2c(-c3ccn[nH]3)nccc12 [Example 217, 1-[2-(morpholin-4-yl)-8-(1H-pyrazol-5-yl)-1,7-naphthyridin-4-yl]piperidin-2-one] | 802 nM
24 | CC(C)(C)NC(=O)c1cncc(-c2cc(N3CCOCC3)nc3c(-c4ccn[nH]4)nccc23)c1 [Example 399, N-tert-butyl-5-[2-(morpholin-4-yl)-8-(1H-pyrazol-5-yl)-1,7-naphthyridin-4-yl]pyridine-3-carboxamide] | 618 nM
25 | C[C@@H]1COCCN1c1cc(C2=CCN(C)CC2)c2ccnc(-c3ccn[nH]3)c2n1 [Example 243, 2-[(3R)-3-methylmorpholin-4-yl]-4-(1-methyl-1,2,3,6-tetrahydropyridin-4-yl)-8-(1H-pyrazol-5-yl)-1,7-naphthyridine] | 36.5 nM
26 | O=S1(=Nc2cc(N3CCOCC3)nc3c(-c4ccn[nH]4)nccc23)CCOCC1 [Example 279, formic acid - N-[2-(morpholin-4-yl)-8-(1H-pyrazol-5-yl)-1,7-naphthyridin-4-yI]-1,4k4-oxathian-4-imine 4-oxide (1:1)] | 293 nM
27 | C[C@@H]1COCCN1c1cc(-c2cnc3n2CCC3)c2ccnc(-c3ccn[nH]3)c2n1 [Example 118, 4-(6,7-dihydro-5H-pyrrolo[1,2-a]imidazol-3-yl)-2-[(3R)-3-methylmorpholin-4-yl]-8-(1H-pyrazol-5-yl)-1,7-naphthyridine] | 10.1 nM
28 | C[C@@H]1COCCN1c1cc(N2CCOCC2)nc2c(-c3ccn[nH]3)nccc12 [Example 148, 4-[(3R)-3-methylmorpholin-4-yl]-2-(morpholin-4-yl)-8-(1H-pyrazol-5-yl)-1,7-naphthyridine] | 47.9 nM
29 | O=C1CN(c2cc(N3CCOCC3)nc3c(-c4ccn[nH]4)nccc23)CCN1 [Example 176, 4-[2-(morpholin-4-yl)-8-(1H-pyrazol-5-yl)-1,7-naphthyridin-4-yl]piperazin-2-one] | 223 nM
30 | CC(C)(O)COc1cc(N2CCOCC2)nc2c(-c3ccn[nH]3)nccc12 [Example 45, 2-methyl-1-{[2-(morpholin-4-yl)-8-(1H-pyrazol-5-yl)-1,7-naphthyridin-4-yl]oxy}propan-2-ol] | 293 nM
31 | C[C@@H]1COCCN1c1cc(OCCN)c2ccnc(-c3ccn[nH]3)c2n1 [Example 55, 2-({2-[(3R)-3-methylmorpholin-4-yl]-8-(1H-pyrazol-5-yl)-1,7-naphthyridin-4-yl}oxy)ethanamine] | 162 nM
32 | CNC(=O)c1cccc(-c2cc(N3CCOCC3)nc3c(-c4ccn[nH]4)nccc23)c1 [Example 297, N-methyl-3-[2-(morpholin-4-yl)-8-(1H-pyrazol-5-yl)-1,7-naphthyridin-4-yl]benzamide] | 119 nM
33 | C[C@@H]1COCCN1c1cc(-c2cnc(S(C)(=O)=O)c(F)c2)c2ccnc(-c3ccn[nH]3)c2n1 [Example 147, 4-[5-fluoro-6-(methylsulfonyl)pyridin-3-yl]-2-[(3R)-3-methylmorpholin-4-yl]-8-(1H-pyrazol-5-yl)-1,7-naphthyridine] | 45.4 nM
34 | Fc1ccc(-c2cc(N3CCOCC3)nc3c(-c4ccn[nH]4)nccc23)c(F)c1 [Example 340, 4-(2,4-difluorophenyl)-2-(morpholin-4-yl)-8-(1H-pyrazol-5-yl)-1,7-naphthyridine] | 33.5 nM
35 | C[C@@H]1COCCN1c1cc(OCCCCN)c2ccnc(-c3ccn[nH]3)c2n1 [Example 57, 4-({2-[(3R)-3-methylmorpholin-4-yl]-8-(1H-pyrazol-5-yl)-1,7-naphthyridin-4-yl}oxy)butan-1-amine] | 230 nM
36 | C[C@@H]1COCCN1c1cc(OCCCCNC(=O)OC(C)(C)C)c2ccnc(-c3ccn[nH]3)c2n1 [Example 52, Tert-butyl [4-({2-[(3R)-3-methylmorpholin-4-yl]-8-(1H-pyrazol-5-yl)-1,7-naphthyridin-4-yl}oxy)butyl]carbamate] | 101 nM

Same assay, conditions: tracer B, TR-FRET; read-out: ATR binding (tracer B) IC50

Row | SMILES | IC50
37 | COc1cc(N2CCOC[C@H]2C)nc2c(-c3cc[nH]n3)nccc12 [Example 53, 4-methoxy-2-((R)-3-methylmorpholin-4-yl)-8-(1H-pyrazol-3-yl)-[1,7]naphthyridine] | 63.5 nM
38 | C=C(C)c1cc(N2CCOCC2)nc2c(-c3cc[nH]n3)nccc12 [Example 10, 4-isopropenyl-2-(morpholin-4-yl)-8-(1H-pyrazol-3-yl)-[1,7]naphthyridine] | 43.9 nM
39 | CN=S(C)(=O)c1ccc(-c2cc(N3CCOCC3)nc3c(-c4ccn[nH]4)nccc23)cc1 (stereo not drawn) [Example 5, 4-[4-(N,S-dimethylsulfonimidoyl)phenyl]-2-[morpholin-4-yl]-8-(1H-pyrazol-5-yl)-1,7-naphthyridine] | 34.1 nM
40 | CS(C)(=O)=Nc1cc(N2CCOCC2)nc2c(-c3ccn[nH]3)nccc12 [Example 65, 4-{[dimethyl(oxido)-λ^6-sulfanylidene]amino}-2-(morpholin-4-yl)-8-(1H-pyrazol-5-yl)-1,7-naphthyridine] | 276 nM
41 | c1cc(-c2nccc3c(OCC4CCOCC4)cc(N4CCOCC4)nc23)[nH]n1 [Example 287, 2-(morpholin-4-yl)-8-(1H-pyrazol-5-yl)-4-(tetrahydro-2H-pyran-4-ylmethoxy)-1,7-naphthyridine] | 461 nM
42 | C[C@@H]1COCCN1c1cc(OCCCCNC(=O)OC(C)(C)C)c2ccnc(-c3ccn[nH]3)c2n1 [Example 52, Tert-butyl [4-({2-[(3R)-3-methylmorpholin-4-yl]-8-(1H-pyrazol-5-yl)-1,7-naphthyridin-4-yl}oxy)butyl]carbamate] | 78.9 nM
